Results published in ChEMBL document CHEMBL2321725, “Optimization of non-ATP competitive CDK/cyclin groove inhibitors through REPLACE-mediated fragment assembly” (J Med Chem, 2013).
Peptide text beside a SMILES is read from it. * marks the point of attachment. X14 = Cc1nc(C(=O)*)nn1-c1cc(Cl)cc(Cl)c1; X17 = Cc1cc(C(=O)*)nn1-c1cc(Cl)cc(Cl)c1; X18 = O=C(c1ccc(-c2cc(Cl)cc(Cl)c2)o1)*; X9 = O=C(c1ccn(-c2cc(Cl)cc(Cl)c2)c1)*; X13 = O=C(c1c[nH]c(-c2cccc(F)c2)n1)*; X11 = Cc1cc(C(=O)*)nn1-c1ccc(Cl)cc1; X12 = Cc1nc(C(=O)*)nn1-c1ccc(Cl)cc1; X16 = Cc1nc(C(=O)*)nn1-c1cccc(Cl)c1; X15 = O=C(c1ccn(-c2ccc(Cl)cc2)c1)*; X2 = Cc1cc(C(=O)*)nn1-c1cccc(Cl)c1; X3 = COc1ccc(-n2nc(C(=O)*)cc2C)cc1; X6 = COc1cccc(-n2nc(C(=O)*)cc2C)c1; X1 = Cc1cccc(-n2nc(C(=O)*)nc2C)c1; X4 = O=C(c1ccc(-c2cccc(Cl)c2)o1)*; X5 = O=C(c1csc(-c2ccc(Cl)cc2)n1)*; X7 = Cc1cc(C(=O)*)nn1-c1cccc(F)c1; X10 = Cc1cc(C(=O)*)nn1-c1ccccc1; X8 = Cn1cc(C(=O)*)nc1-c1ccccc1

Key:
[1] = target: Cyclin-dependent kinase 4/cyclin D1 (Homo sapiens, UniProt P11802); assay: Inhibition of human recombinant CDK4/Cyclin D1 using fluoresceinyl-Ahx-Pro-Val-Lys-Arg-Arg-Leu-(3ClPhe)-Gly tracer peptide as substrate after 45 mins by fluorescent polarization binding assay
Cyclin-dependent kinase 4/cyclin D1, sequence (P11802 whole entry): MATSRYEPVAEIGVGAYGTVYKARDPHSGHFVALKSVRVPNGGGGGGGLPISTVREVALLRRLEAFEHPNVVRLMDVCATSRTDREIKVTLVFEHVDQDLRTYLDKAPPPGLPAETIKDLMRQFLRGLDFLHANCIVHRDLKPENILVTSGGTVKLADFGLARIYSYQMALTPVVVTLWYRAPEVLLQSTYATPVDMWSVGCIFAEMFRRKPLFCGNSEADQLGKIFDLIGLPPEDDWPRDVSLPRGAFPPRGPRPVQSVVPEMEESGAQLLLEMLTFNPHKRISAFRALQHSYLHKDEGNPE
Cyclin-dependent kinase 4/cyclin D1, sequence (P24385 whole entry, further chain): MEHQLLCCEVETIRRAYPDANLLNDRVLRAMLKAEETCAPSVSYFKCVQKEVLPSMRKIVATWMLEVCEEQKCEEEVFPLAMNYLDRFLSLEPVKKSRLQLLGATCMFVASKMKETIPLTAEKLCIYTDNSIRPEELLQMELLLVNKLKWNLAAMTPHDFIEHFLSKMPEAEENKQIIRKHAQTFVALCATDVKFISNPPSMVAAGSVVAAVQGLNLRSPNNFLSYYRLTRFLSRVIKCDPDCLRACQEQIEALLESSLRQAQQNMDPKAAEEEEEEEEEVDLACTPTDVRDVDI

[2] = target: Cyclin-dependent kinase 2/cyclin A (Homo sapiens, UniProt P24941); assay: Inhibition of human recombinant CDK2/Cyclin A2 using fluoresceinyl-Ahx-Pro-Val-Lys-Arg-Arg-Leu-Phe-Gly tracer peptide as substrate after 45 mins by fluorescent polarization binding assay; assay type: protein-complex assay

| SMILES | IC50 [1] | IC50 [2] |
| --- | --- | --- |
| Cc1nc(C(=O)N[C@@H](CCCNC(=N)N)C(=O)N[C@@H](CC(C)C)C(=O)NCc2cccc(Oc3ccccc3)c2)nn1-c1ccc(Cl)cc1 | > 200 µM | 106 µM |
| Cc1nc(C(=O)N[C@@H](CCCNC(=N)N)C(=O)N[C@@H](CC(C)C)C(=O)NCc2cc(Oc3cccc(F)c3)ccn2)nn1-c1ccc(Cl)cc1 | > 200 µM | 53.2 µM |
| Cc1nc(C(=O)N[C@@H](CCCNC(=N)N)C(=O)N[C@@H](CC(C)C)C(=O)NCc2cc(Oc3ccc(F)cc3)ccn2)nn1-c1ccc(Cl)cc1 | > 200 µM | 18.1 µM |
| Cc1nc(C(=O)N[C@@H](CCCNC(=N)N)C(=O)N[C@@H](CC(C)C)C(=O)NCc2cc(Oc3ccc(Cl)cc3)ccn2)nn1-c1ccc(Cl)cc1 | > 500 µM | 54.4 µM |
| Cc1ccccc1Oc1ccnc(CNC(=O)[C@H](CC(C)C)NC(=O)[C@H](CCCNC(=N)N)NC(=O)c2nc(C)n(-c3ccc(Cl)cc3)n2)c1 | > 500 µM | 60 µM |
| Cc1nc(C(=O)N[C@@H](CCCNC(=N)N)C(=O)N[C@@H](CC(C)C)C(=O)NCc2cc(Oc3cccc(Cl)c3)ccn2)nn1-c1cc(Cl)cc(Cl)c1 | 120 µM | 61 µM |
| Cc1nc(C(=O)N[C@@H](CCCNC(=N)N)C(=O)N[C@@H](CC(C)C)C(=O)NCc2cccc(Oc3cc(Cl)cc(Cl)c3)c2)nn1-c1cc(Cl)cc(Cl)c1 | 120 µM | > 180 µM |
| Cc1nc(C(=O)N[C@@H](CCCNC(=N)N)C(=O)N[C@@H](CC(C)C)C(=O)NCc2cc(Oc3ccc(F)c(F)c3)ccn2)nn1-c1cc(Cl)cc(Cl)c1 | > 180 µM | > 180 µM |
| CC[C@H](C)[C@H](NC(=O)[C@H](CC(C)C)NC(=O)[C@H](CCCNC(=N)N)NC(=O)c1nc(C)n(-c2cccc(C)c2)n1)C(=O)N[C@@H](Cc1ccccc1)C(N)=O (X1-RLIF-NH2) | 51.1 µM | 13.8 µM |
| CC[C@H](C)[C@H](NC(=O)[C@H](CC(C)C)NC(=O)[C@H](CCCNC(=N)N)NC(=O)c1cc(C)n(-c2cccc(Cl)c2)n1)C(=O)N[C@@H](Cc1ccccc1)C(N)=O (X2-RLIF-NH2) | 70.3 µM | 11.9 µM |
| CC[C@H](C)[C@H](NC(=O)[C@H](CC(C)C)NC(=O)[C@H](CCCNC(=N)N)NC(=O)c1cc(C)n(-c2ccc(OC)cc2)n1)C(=O)N[C@@H](Cc1ccccc1)C(N)=O (X3-RLIF-NH2) | > 180 µM | > 180 µM |
| CC[C@H](C)[C@H](NC(=O)[C@H](CC(C)C)NC(=O)[C@H](CCCNC(=N)N)NC(=O)c1ccc(-c2cccc(Cl)c2)o1)C(=O)N[C@@H](Cc1ccccc1)C(N)=O (X4-RLIF-NH2) | > 180 µM | > 180 µM |
| CC[C@H](C)[C@H](NC(=O)[C@H](CC(C)C)NC(=O)[C@H](CCCNC(=N)N)NC(=O)c1csc(-c2ccc(Cl)cc2)n1)C(=O)N[C@@H](Cc1ccccc1)C(N)=O (X5-RLIF-NH2) | > 180 µM | > 180 µM |
| CC[C@H](C)[C@H](NC(=O)[C@H](CC(C)C)NC(=O)[C@H](CCCNC(=N)N)NC(=O)c1cc(C)n(-c2cccc(OC)c2)n1)C(=O)N[C@@H](Cc1ccccc1)C(N)=O (X6-RLIF-NH2) | > 100 µM | 64.1 µM |
| CC[C@H](C)[C@H](NC(=O)[C@H](CC(C)C)NC(=O)[C@H](CCCNC(=N)N)NC(=O)c1cc(C)n(-c2cccc(F)c2)n1)C(=O)N[C@@H](Cc1ccccc1)C(N)=O (X7-RLIF-NH2) | 65.9 µM | 29.6 µM |
| CC[C@H](C)[C@H](NC(=O)[C@H](CC(C)C)NC(=O)[C@H](CCCNC(=N)N)NC(=O)c1cn(C)c(-c2ccccc2)n1)C(=O)N[C@@H](Cc1ccccc1)C(N)=O (X8-RLIF-NH2) | > 180 µM | > 180 µM |
| CC[C@H](C)[C@H](NC(=O)[C@H](CC(C)C)NC(=O)[C@H](CCCNC(=N)N)NC(=O)c1ccn(-c2cc(Cl)cc(Cl)c2)c1)C(=O)N[C@@H](Cc1ccccc1)C(N)=O (X9-RLIF-NH2) | > 180 µM | > 180 µM |
| CC[C@H](C)[C@H](NC(=O)[C@H](CC(C)C)NC(=O)[C@H](CCCNC(=N)N)NC(=O)c1cc(C)n(-c2ccccc2)n1)C(=O)N[C@@H](Cc1ccccc1)C(N)=O (X10-RLIF-NH2) | 54.2 µM | 40.3 µM |
| CC[C@H](C)[C@H](NC(=O)[C@H](CC(C)C)NC(=O)[C@H](CCCNC(=N)N)NC(=O)c1cc(C)n(-c2ccc(Cl)cc2)n1)C(=O)N[C@@H](Cc1ccccc1)C(N)=O (X11-RLIF-NH2) | 54.7 µM | 33.7 µM |
| CC[C@H](C)[C@H](NC(=O)[C@H](CC(C)C)NC(=O)[C@H](CCCNC(=N)N)NC(=O)c1nc(C)n(-c2ccc(Cl)cc2)n1)C(=O)N[C@@H](Cc1ccccc1)C(N)=O (X12-RLIF-NH2) | 12 µM | 11.5 µM |
| CC[C@H](C)[C@H](NC(=O)[C@H](CC(C)C)NC(=O)[C@H](CCCNC(=N)N)NC(=O)c1c[nH]c(-c2cccc(F)c2)n1)C(=O)N[C@@H](Cc1ccccc1)C(N)=O (X13-RLIF-NH2) | 68.5 µM | 34.3 µM |
| CC[C@H](C)[C@H](NC(=O)[C@H](CC(C)C)NC(=O)[C@H](CCCNC(=N)N)NC(=O)c1nc(C)n(-c2cc(Cl)cc(Cl)c2)n1)C(=O)N[C@@H](Cc1ccccc1)C(N)=O (X14-RLIF-NH2) | 27.3 µM | 4 µM |
| CC[C@H](C)[C@H](NC(=O)[C@H](CC(C)C)NC(=O)[C@H](CCCNC(=N)N)NC(=O)c1ccn(-c2ccc(Cl)cc2)c1)C(=O)N[C@@H](Cc1ccccc1)C(N)=O (X15-RLIF-NH2) | > 180 µM | > 180 µM |
| CC[C@H](C)[C@H](NC(=O)[C@H](CC(C)C)NC(=O)[C@H](CCCNC(=N)N)NC(=O)c1nc(C)n(-c2cccc(Cl)c2)n1)C(=O)N[C@@H](Cc1ccccc1)C(N)=O (X16-RLIF-NH2) | 26.5 µM | 5.7 µM |
| CC[C@H](C)[C@H](NC(=O)[C@H](CC(C)C)NC(=O)[C@H](CCCNC(=N)N)NC(=O)c1cc(C)n(-c2cc(Cl)cc(Cl)c2)n1)C(=O)N[C@@H](Cc1ccccc1)C(N)=O (X17-RLIF-NH2) | > 100 µM | 21.8 µM |
| CC[C@H](C)[C@H](NC(=O)[C@H](CC(C)C)NC(=O)[C@H](CCCNC(=N)N)NC(=O)c1ccc(-c2cc(Cl)cc(Cl)c2)o1)C(=O)N[C@@H](Cc1ccccc1)C(N)=O (X18-RLIF-NH2) | > 180 µM | > 180 µM |
